From patent US8357504B2, “Method and kit for the microbiological determination of vitamins in substance mixtures” (IFP Privates Institut fur Produktqualitat GmbH, priority 2004, dated 2013)
Values joined by “and” are separate entries in the source; they are usually repeats but may differ in a detail not shown here. Identical values can stand only once.

Experiments:
[1] = system: Lactobacillus rhamnosus ATCC 7469; assay: Microbiological riboflavin determination (growth turbidity, riboflavin assay medium); format: cell-based; conditions: for Average value (measurement at 630 nm): number 3; for Measurement at 630 nm: single well
From the text: The preparation of the microtitration plate and the determination of riboflavin was effected as in Example 1, except only that Lactobacillus rhamnosus ATCC 7469 was employed as test organism. As assay medium there was employed Difco™ riboflavin assay medium, containing cas amino acids 10.0 g/L, dextrose 20.0 g/L, sodium acetate 15.0 g/L, dipotassium hydrogen phosphate 1.0 g/L, potassium dihydrogen phosphate 1.0 g/L, L-asparagine 0.6 g/L, L-cystine 0.2 g/L, DL-tryptophane 0.2 g/L, magnesium sulfate 0.4 g/L, adenine sulfate 20.0 mg/L, guanine hydrochloride 20.0 mg/L, uracil 20.0 mg/L, xanthin 20 mg/L, iron sulfate 20.0 mg/L, manganese sulfate 20.0 mg/L, sodium chloride 20.0 mg/L, pyridoxine hydrochloride 4.0 mg/L, pyridoxal hydrochloride 4.0 mg/L, p-aminobenzoic acid 2.0 mg/L, calcium pantothenate 800 μg/L, folic acid 800 μg/L, nicotinic acid 800 μg/L, thiamine hydrochloride 400 μg/L, biotin 1.0 μg/L. The storage medium additionally contained 200 mM trehalose.

[2] = system: Saccharomyces cerevisae ATCC 9080; assay: Microbiological B6 pyridoxine determination (growth turbidity, pyridoxine-Y-medium); format: cell-based; conditions: for Average value (measurement at 630 nm): number 3; for Measurement at 630 nm: single well
Procedure: The preparation of the microtitration plate and the determination of B6-pyridoxine was effected as in Example 1, except only that as test organism Saccharomyces cerevisae ATCC 9080 was employed. As assay medium there was employed Difco™ pyridoxine-Y-medium, containing dextrose 40.0 g/L, L-asparagine 4.0 g/L, ammonium sulfate 4.0 g/L potassium dihydrogen phosphate 3.0 g/L, magnesium sulfate 1.0 g/L, calcium chloride 0.49 g/L, DL-methionine 40.0 mg/L, DL-tryptophane 40.0 mg/L, DL-isoleucin 40.0 mg/L, DL-valin 40.0 mg/L, L-histidine hydrochloride 20.0 mg/L, riboflavin 20.0 mg/L, biotin 8.0 mg/L, inositol 5.0 mg/L, iron sulfate 500 μg/L, thiamine hydrochloride 400.0 μg/L, calcium pantothenate 400.0 μg/L, nicotinic acid 400.0 μg/L, boric acid 200.0 μg/L, potassium iodide 200.0 μg/L, ammonium molybdate 40.0 μg/L, manganese sulfate 80.0 μg/L, copper sulfate 90.0 μg/L, zinc sulfate 80.0 μg/L. The storage medium further contained 200 mM trehalose.

[3] = system: Lactobacillus plantarum ATCC 8014; assay: Microbiological biotin determination (growth turbidity, biotin assay medium); format: cell-based; conditions: for Average value (measurement at 630 nm): number 3; for Measurement at 630 nm: single well
Procedure: The preparation of the microtitration plate and determination of biotin was effected as in Example 1 with Lactobacillus plantarum ATCC 8014. There served as assay medium Difco™ biotin assay medium, containing casamino acids 12.0 g/L, dextrose 40.0 g/L, sodium acetate 20.0 g/L, L-cystein 0.2 g/L, DL-tryptophane 0.2 g/L, adenine sulfate 20.0 mg/L, guanine hydrochloride 20.0 mg/L, uracil 20.0 mg/L, thiamine hydrochloride 2.0 mg/L, riboflavin 2.0 mg/L, niacin 2.0 mg/L, calcium pantothenate 2.0 mg/L, pyridoxine hydrochloride 4.0 mg/L, p-aminobenzoic acid 0.2 mg/L, magnesium sulfate (water-free) 0.4 mg/L, sodium chloride 20.0 mg/L, iron sulfate 20.0 mg/L, manganese sulfate 20.0 mg/L, potassium dihydrogen phosphate 1.0 g/L, dipotassium hydrogen phosphate 1.0 g/L. The storage medium further contain 200 mM trehalose. The determined standard curve is show in FIG. 4.

[4] = system: Lactobacillus rhamnosus ATCC 7469; assay: Microbiological folic acid determination (growth turbidity, folic acid-casein medium); format: cell-based; conditions: for Average value (measurement at 630 nm): number 3; for Measurement at 630 nm: single well
From the text: The preparation of the microtitration plate and the determination of folic acid (pteroylglutaminic acid and other folic acid conjugates) was effected as in Example 1, except only that Lactobacillus rhamnosus ATCC 7469 was employed as test organism. There was employed as assay medium Difco™ folic acid-casein medium, containing activated carbon treated pancreas digested casein 10.0 g/L, dextrose 40.0 g/L, sodium acetate 40.0 g/L, potassium dihydrogen phosphate 1.0 g/L, dipotassium hydrogen phosphate 1.0 g/L, DL-tryptophane 0.2 g/L, L-asparagine 0.6 g/L, L-cystein hydrochloride 0.5 g/L, adenine sulfate 10.0 mg/L, guanine hydrochloride 10.0 mg/L, uracil 10.0 mg/L, xanthin 20.0 mg/L, Polysorbate-80 0.1 g/L, glutathion (reduced) 5.0 mg/L, magnesium sulfate 0.2 g/L, sodium chloride 20.0 mg/L, iron sulfate 20.0 mg/L, manganese sulfate 15.0 mg/L, riboflavin 1.0 mg/L, p-aminobenzoic acid 2.0 mg/L, pyridoxine hydrochloride 4.0 mg/L, thiamine hydrochloride 400.0 μg/L, calcium pantothenate 800.0 μg/L, nicotinic acid 800.0 μg/L, biotin 20.0 μg/L, 0.05% ascorbic acid. The storage medium contained 200 mM trehalose. The folic acid standard was dissolved in 100 mMol potassium phosphate buffer, pH 6.1, 0.1% ascorbic acid.

[5] = system: Lactobacillus plantarum (ATCC 8014); conditions: cited from earlier work
[6] = system: Lactobacillus planatarum ATTC 8014; assay: Microbiological calcium pantothenate determination (growth turbidity); format: cell-based; conditions: for Average value (measurement at 630 nm): number 3; for Measurement at 630 nm: single well
Procedure: [table] The preparation of the microtitration plate and the determination of […] 800 μg/L, p-aminobenzoic acid 200.0 μg/L, biotin 1.0 μg/L, potassium dihydrogen phosphate 1.0 g/L, dipotassium hydrogen phosphate 1.0 g/L, magnesium sulfate 0.4 g/L, sodium chloride 20.0 mg/L, iron sulfate 20.0 mg/L, manganese sulfate 20.0 mg/L. The storage medium further contained 200 mM trehalose.

[7] = system: Lactobacillus delbrueckii subsp. Lactis (L. leichmanii) ATCC 7830; assay: Microbiological vitamin B12 determination (growth turbidity, B12 assay medium); format: cell-based; conditions: for Average value (measurement at 630 nm): number 3; for Measurement at 630 nm: single well
From the text: The preparation of the microtitration plate and the determination of vitamin B12 (cyanocobalamine, hydroxycobalamine) was effected as in Example 1, except only that Lactobacillus delbrueckii subsp. Lactis (L. leichmanii) ATCC 7830 was employed as test organism. As assay medium there served Difco™ B12 assay medium, containing casamino acids 15.0 g/L, dextrose 40.0 g/L, asparagine 0.2 g/L, sodium acetate 20.0 g/L, Ascorbic acid 4.0 g/L, L-cystein 4.0 g/L, DL-tryptophane 0.4 g/L, adenine sulfate 20.0 mg/L, guanine hydrochloride 20.0 mg/L, uracil 20.0 mg/L, xanthin 20.0 mg/L, polysorbate-80 2.0 g/L, magnesium sulfate (water-free) 0.4 mg/L, sodium chloride 20.0 mg/L, iron sulfate 20.0 mg/L, manganese sulfate 20.0 mg/L, riboflavin 1.0 mg/L, p-aminobenzoic acid 2.0 mg/L, pyridoxine hydrochloride 4.0 mg/L, thiamine hydrochloride 1.0 mg/L, calcium pantothenate 1.0 mg/L, niacin 2.0 mg/L, biotin 10.0 ug/L, pyridoxine hydrochloride 4.0 mg/L, pyridoxal hydrochloride 4.0 mg/L, pyridoxamine hydrochloride 800.0 ug/L, […], potassium dihydrogen phosphate 1.0 g/L, dipotassium hydrogen phosphate 1.0 g/L. The storage medium further contained 200 mM trehalose.

[8] = riboflavin standard 0.1 mg/100 g
[9] = riboflavin standard 0.2 mg/100 g
[10] = riboflavin standard 0.3 mg/100 g
[11] = riboflavin standard 0.4 mg/100 g
[12] = riboflavin standard 0.5 mg/100 g
[13] = B6-pyridoxine standard 0.004 mg/100 g
[14] = B6-pyridoxine standard 0.008 mg/100 g
[15] = B6-pyridoxine standard 0.012 mg/100 g
[16] = B6-pyridoxine standard 0.016 mg/100 g
[17] = B6-pyridoxine standard 0.024 mg/100 g
[18] = folic acid standard 3.75 pg/150 μl (0.25 μg/100 g)
[19] = folic acid standard 7.5 pg/150 μl (0.5 μg/100 g)
[20] = folic acid standard 15 pg/150 μl (1 μg/100 g)
[21] = folic acid standard 22.5 pg/150 μl (1.5 μg/100 g)
[22] = folic acid standard 30 pg/150 μl (2 μg/100 g)
[23] = Ca pantothenate standard 0.08 mg/100 g
[24] = Ca pantothenate standard 0.16 mg/100 g
[25] = Ca pantothenate standard 0.32 mg/100 g
[26] = Ca pantothenate standard 0.48 mg/100 g
[27] = Ca pantothenate standard 0.64 mg/100 g
[28] = vitamin B12 standard 0.1 μg/100 g
[29] = vitamin B12 standard 0.2 μg/100 g
[30] = vitamin B12 standard 0.3 μg/100 g
[31] = vitamin B12 standard 0.4 μg/100 g
[32] = vitamin B12 standard 0.8 μg/100 g

## Cc1cc2nc3c(=O)[nH]c(=O)nc-3n(C[C@H](O)[C@H](O)[C@H](O)CO)c2cc1C [B2 Riboflavin, riboflavin]
[1]; [8]
  Average value (measurement at 630 nm): 0.204
  Measurement at 630 nm: 0.196 and 0.209 and 0.206
[1]; [9]
  Average value (measurement at 630 nm): 0.398
  Measurement at 630 nm: 0.404 and 0.408 and 0.383
[1]; [10]
  Average value (measurement at 630 nm): 0.623
  Measurement at 630 nm: 0.624 and 0.616 and 0.628
[1]; [11]
  Average value (measurement at 630 nm): 0.759
  Measurement at 630 nm: 0.752 and 0.755 and 0.771
[1]; [12]
  Average value (measurement at 630 nm): 0.88
  Measurement at 630 nm: 0.855 and 0.886 and 0.9

## Cc1ncc(CO)c(CO)c1O [B6-pyridoxine, pyridoxine]
[2]; [13]
  Average value (measurement at 630 nm): 0.299
  Measurement at 630 nm: 0.298 and 0.297 and 0.301
[2]; [14]
  Average value (measurement at 630 nm): 0.4
  Measurement at 630 nm: 0.407 and 0.398 and 0.394
[2]; [15]
  Average value (measurement at 630 nm): 0.538
  Measurement at 630 nm: 0.522 and 0.541 and 0.552
[2]; [16]
  Average value (measurement at 630 nm): 0.753
  Measurement at 630 nm: 0.73 and 0.766 and 0.762
[2]; [17]
  Average value (measurement at 630 nm): 1.069
  Measurement at 630 nm: 1.049 and 1.088 and 1.07

## O=C(O)CCCC[C@@H]1SC[C@@H]2NC(=O)N[C@@H]21 [Biotin, biotin]
[3]; biotin standard 0.003 μg/100 g
  Average value (measurement at 630 nm): 0.204
  Measurement at 630 nm: 0.205 and 0.204 and 0.203
[3]; biotin standard 0.009 μg/100 g
  Average value (measurement at 630 nm): 0.499
  Measurement at 630 nm: 0.506 and 0.5 and 0.491
[3]; biotin standard 0.015 μg/100 g
  Average value (measurement at 630 nm): 0.685
  Measurement at 630 nm: 0.676 and 0.693 and 0.686
[3]; biotin standard 0.021 μg/100 g
  Average value (measurement at 630 nm): 0.823
  Measurement at 630 nm: 0.826 and 0.822 and 0.82
[3]; biotin standard 0.027 μg/100 g
  Average value (measurement at 630 nm): 0.985
  Measurement at 630 nm: 0.986 and 0.988 and 0.982

## Nc1nc2ncc(CNc3ccc(C(=O)N[C@@H](CCC(=O)O)C(=O)O)cc3)nc2c(=O)[nH]1 [Folic acid, folic acid]
[4]; [18]
  Average value (measurement at 630 nm): 0.264
  Measurement at 630 nm: 0.269 and 0.261
[4]; [19]
  Average value (measurement at 630 nm): 0.545
  Measurement at 630 nm: 0.556 and 0.536 and 0.544
[4]; [20]
  Average value (measurement at 630 nm): 0.793
  Measurement at 630 nm: 0.784 and 0.788 and 0.807
[4]; [21]
  Average value (measurement at 630 nm): 0.999
  Measurement at 630 nm: 0.986 and 1.002 and 1.01
[4]; [22]
  Average value (measurement at 630 nm): 1.094
  Measurement at 630 nm: 1.121 and 1.074 and 1.087

## Niacytine
[5]
  Consumption by the test organism: not consumed

## calcium pantothenate [Ca pantothenate]
[6]; [23]
  Average value (measurement at 630 nm): 0.076
  Measurement at 630 nm: 0.075 and 0.08 and 0.073
[6]; [24]
  Average value (measurement at 630 nm): 0.179
  Measurement at 630 nm: 0.179 and 0.178 and 0.181
[6]; [25]
  Average value (measurement at 630 nm): 0.395
  Measurement at 630 nm: 0.389 and 0.404 and 0.392
[6]; [26]
  Average value (measurement at 630 nm): 0.491
  Measurement at 630 nm: 0.49 and 0.493 and 0.491
[6]; [27]
  Average value (measurement at 630 nm): 0.59
  Measurement at 630 nm: 0.589 and 0.594 and 0.588

## cyanocobalamine [Vitamin B12]
[7]; [28]
  Average value (measurement at 630 nm): 0.268
  Measurement at 630 nm: 0.264 and 0.271 and 0.269
[7]; [29]
  Average value (measurement at 630 nm): 0.515
  Measurement at 630 nm: 0.51 and 0.503 and 0.531
[7]; [30]
  Average value (measurement at 630 nm): 0.728
  Measurement at 630 nm: 0.727 and 0.721 and 0.736
[7]; [31]
  Average value (measurement at 630 nm): 0.869
  Measurement at 630 nm: 0.88 and 0.863 and 0.865
[7]; [32]
  Average value (measurement at 630 nm): 1.069
  Measurement at 630 nm: 1.086 and 1.073 and 1.048
